Molecules are shown by their SMILES. Where only a bound is given, the exact number is not on record here.

For the assay, the system named is HCV replicon. Put plainly: Replicon based assay of HCV replication inhibition (NPT ELISA). It counts as cell-based, Hepatitis C virus. The settings on record: Hepatitis C virus, Huh-7, 72 h, Table III; Huh-7 HCV replicon-containing cells, three days; read-out: Activity. Summed up: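 Huh-7 cells carrying a bicistronic HCV replicon (neo, EMCV-IRES-driven NS3–NS5B) treated overnight after seeding with usually 6 concentrations, 10 to 0.03 micromolar, for three days at 37° C without G418. Replication read as NPT level by captured ELISA; matched-DMSO wells and interferon alpha as controls.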
Regarding `Fc1ccc(-c2csc(Nc3ccc(OCCCC4CCCC4)c(C(F)(F)F)c3)n2)cn1` [compound 528, N-(4-(3-cyclopentylpropoxy)-3-(trifluoromethyl)phenyl)-4-(6-fluoropyridin-3-yl)thiazol-2-amine], the EC50 is under 1 µM. In the case of `CCCCCN(C)c1ccc(Nc2nc(-c3ccc(F)nc3)cs2)cc1C(F)(F)F` [compound 529, 2-(trifluoromethyl)-N4-(4-(6-fluoropyridin-3-yl)thiazol-2-yl)-N1-methyl-N1-pentylbenzene-1,4-diamine] it was under 1 µM; in that of `Fc1ccc(-c2csc(Nc3ccc(OCC4CCCCC4)c(F)c3)n2)cn1` [compound 530, N-(4-(cyclohexylmethoxy)-3-fluorophenyl)-4-(6-fluoropyridin-3-yl)thiazol-2-amine], under 1 µM.

`CCCC/C=C\CCOc1ccc(Nc2nc(-c3cccnc3)cs2)cc1C(F)(F)F` [compound 531, N-(4-((Z)-oct-3-enyloxy)-3-(trifluoromethyl)phenyl)-4-(pyridin-3-yl)thiazol-2-amine]: the EC50 is under 1 µM. Turning to `CCCC/C=C\CCOc1ccc(Nc2nc(-c3ccc(C)nc3)cs2)cc1C(F)(F)F` [compound 532, N-(4-((Z)-oct-3-enyloxy)-3-(trifluoromethyl)phenyl)-4-(6-methylpyridin-3-yl)thiazol-2-amine], the EC50 is under 1 µM. With `CCCC/C=C\CCOc1ccc(Nc2nc(-c3ccc(F)cc3)cs2)cc1C(F)(F)F` [compound 533, N-(4-((Z)-oct-3-enyloxy)-3-(trifluoromethyl)phenyl)-4-(4-fluorophenyl)thiazol-2-amine], the EC50 is under 1 µM. In the case of `CCCCCOc1ccc(Nc2nc(-c3ccc4c(c3)OCO4)cs2)cc1C(F)(F)F` [compound 534, 4-(benzo[d][1,3]dioxol-6-yl)-N-(3-(trifluoromethyl)-4-(pentyloxy)phenyl)thiazol-2-amine] it was under 1 µM; in that of `CCCCCOc1ccc(Nc2nc(-c3ccc(NC)nc3)cs2)cc1C(F)(F)F` [compound 535, 5-(2-(3-(trifluoromethyl)-4-(pentyloxy)phenylamino)thiazol-4-yl)-N-methylpyridin-2-amine], under 1 µM; in that of `CCCCCCCCOc1ccc(Nc2nc(-c3ccc(NC)nc3)cs2)cc1C(F)(F)F` [compound 536, 5-(2-(3-(trifluoromethyl)-4-(octyloxy)phenylamino)thiazol-4-yl)-N-methylpyridin-2-amine], under 1 µM.

Turning to `CNc1ccc(-c2csc(Nc3ccc(OC4CCCC4)c(C(F)(F)F)c3)n2)cn1` [compound 537, 5-(2-(4-(cyclopentyloxy)-3-(trifluoromethyl)phenylamino)thiazol-4-yl)-N-methylpyndin-2-amine], the EC50 is under 1 µM. Consider `CCCCCOc1ccc(Nc2nc(-c3cnc4ccccc4c3)cs2)cc1C(F)(F)F` [compound 538, N-(3-(trifluoromethyl)-4-(pentyloxy)phenyl)-4-(quinolin-3-yl)thiazol-2-amine], for which the EC50 is under 1 µM. On to `CCCCCCCCOc1ccc(Nc2nc(-c3cnc4ccccc4c3)cs2)cc1C(F)(F)F` [compound 539, N-(3-(trifluoromethyl)-4-(octyloxy)phenyl)-4-(quinolin-3-yl)thiazol-2-amine], for which the EC50 is under 1 µM. In the case of `CCCCCCCCOc1ccc(Nc2nc(-c3ccc(N(C)C)nc3)cs2)cc1C(F)(F)F` [compound 541, 5-(2-(3-(trifluoromethyl)-4-(octyloxy)phenylamino)thiazol-4-yl)-N,N-dimethylpyridin-2-amine], the EC50 was under 1 µM. Turning to `CCCCCOc1ccc(Nc2nc(/C=C/c3cccc(Cl)c3)cs2)cc1C(F)(F)F` [compound 542, 4-(3-chlorostyryl)-N-(3-(trifluoromethyl)-4-(pentyloxy)phenyl)thiazol-2-amine], the EC50 is under 1 µM.

As for `CCCCCOc1ccc(Nc2nc(-c3cc4cccnc4nc3O)cs2)cc1C(F)(F)F` [compound 543, 3-(2-(3-(trifluoromethyl)-4-(pentyloxy)phenylamino)thiazol-4-yl)-l,8-naphthyridin-2-ol], the EC50 was 1 to 10 µM.

With `CCCCCCCCc1ccc(Nc2nc(-c3ccc(F)cc3)cs2)cc1` [compound 544, 4-(4-fluorophenyl)-N-(4-octylphenyl)thiazol-2-amine], the EC50 is under 1 µM. For the compound `CCCCCCCCc1ccc(Nc2nc(-c3ccc(O)c(C(N)=O)c3)cs2)cc1` [compound 545, 5-(2-(4-octylphenylamino)thiazol-4-yl)-2-hydroxybenzamide], the EC50 was under 1 µM. With `CCCCCCCCc1ccc(Nc2nc(-c3ccc(Cl)s3)cs2)cc1` [compound 546, 4-(5-chlorothiophen-2-yl)-N-(4-octylphenyl)thiazol-2-amine], the EC50 is under 1 µM. For the compound `CCCCCCCCc1ccc(Nc2nc(-c3ccc(O)c(O)c3)cs2)cc1` [compound 547, 4-(2-(4-octylphenylamino)thiazol-4-yl)benzene-1,2-diol], the EC50 is under 1 µM. As for `CCCCCCCCc1ccc(Nc2nc(-c3ccc4c(c3)NC(=O)CO4)cs2)cc1` [compound 548, 6-(2-(4-octylphenylamino)thiazol-4-yl)-2H-benzo[b][1,4]oxazin-3(4H)-one], the figure is under 1 µM. For the compound `CCCCCCCCc1ccc(Nc2nc(-c3ccc4[nH]c(=O)oc4c3)cs2)cc1` [compound 549, 6-(2-(4-octylphenylamrno)thiazol-4-yl)benzo[d]oxazol-2(3H)-one], the EC50 is under 1 µM. For `CCCCCCCCc1ccc(Nc2nc(-c3ccc(OCC(=O)O)cc3)c(C)s2)cc1` [compound 550, 2-(4-(2-(4-octylphenylamino)-5-methylthiazol-4-yl)phenoxy)acetic acid], the EC50 was under 1 µM. As for `CCCCCCCCc1ccc(Nc2nc(-c3ccccn3)cs2)cc1` [compound 551, N-(4-octylphenyl)-4-(pyridin-2-yl)thiazol-2-amine], the EC50 is under 1 µM. For `CCCCCCCCc1ccc(Nc2nc(-c3ccc(-c4ccccn4)s3)cs2)cc1` [compound 552, N-(4-octylphenyl)-4-(5-(pyridin-2-yl)thiophen-2-yl)thiazol-2-amine], the EC50 was under 1 µM. In the case of `CCCCCCCCc1ccc(Nc2nc(-c3cc4ccccc4o3)cs2)cc1` [compound 553, 4-(benzofuran-2-yl)-N-(4-octylphenyl)thiazol-2-amine] it was 1 to 10 µM. For the compound `CCCCCCCCc1ccc(Nc2nc(-c3sc(-c4cnccn4)nc3C)cs2)cc1` [compound 554, 4-(4-methyl-2-(pyrazin-2-yl)thiazol-5-yl)-N-(4-octylphenyl)thiazol-2-amine], the EC50 is under 1 µM.

On to `CCCCCCCCc1ccc(Nc2nc(-c3ccc(Cl)cc3)cs2)cc1` [compound 555, 4-(4-chlorophenyl)-N-(4-octylphenyl)thiazol-2-amine], for which the EC50 was under 1 µM.

Regarding `CCCCCCCc1ccc(Nc2nc(-c3ccc(O)c(C(N)=O)c3)cs2)cc1` [compound 557, 5-(2-(4-heptylphenylamino)thiazol-4-yl)-2-hydroxybenzamide], the EC50 is under 1 µM. In the case of `CCCCCCCc1ccc(Nc2nc(-c3ccc(Cl)s3)cs2)cc1` [compound 558, 4-(5-chlorothiophen-2-yl)-N-(4-heptylphenyl)thiazol-2-amine], the EC50 was under 1 µM.

As to `CCCCCCCc1ccc(Nc2nc(-c3ccc(O)c(O)c3)cs2)cc1` [compound 559, 4-(2-(4-heptylphenylamino)thiazol-4-yl)benzene-1,2-diol], the EC50 was under 1 µM. `CCCCCCCc1ccc(Nc2nc(-c3ccc4c(c3)NC(=O)CO4)cs2)cc1` [compound 560]: the EC50 is under 1 µM.

As to `CCCCCCCc1ccc(Nc2nc(-c3ccc4[nH]c(=O)oc4c3)cs2)cc1` [compound 561], the EC50 is under 1 µM. For the compound `CCCCCCCc1ccc(Nc2nc(-c3ccc(OCC(=O)O)cc3)c(C)s2)cc1` [compound 562, 2-(4-(2-(4-heptylphenylamino)-5-methylthiazol-4-yl)phenoxy)acetic acid], the EC50 was under 1 µM. `CCCCCCCc1ccc(Nc2nc(-c3ccccn3)cs2)cc1` [compound 563, N-(4-heptylphenyl)-4-(pyridin-2-yl)thiazol-2-amine]: the EC50 was under 1 µM. As to `CCCCCCCc1ccc(Nc2nc(-c3ccc(-c4ccccn4)s3)cs2)cc1` [compound 564, N-(4-heptylphenyl)-4-(5-(pyridin-2-yl)thiophen-2-yl)thiazol-2-amine], the EC50 is under 1 µM. Regarding `CCCCCCCc1ccc(Nc2nc(-c3cc4ccccc4o3)cs2)cc1` [compound 565, 4-(benzofuran-2-yl)-N-(4-heptylphenyl)thiazol-2-amine], the EC50 is over 10 µM.

Consider `CCCCCCCc1ccc(Nc2nc(-c3sc(-c4cnccn4)nc3C)cs2)cc1` [compound 566, N-(4-heptylphenyl)-4-(4-methyl-2-(pyrazin-2-yl)thiazol-5-yl)thiazol-2-amine], for which the EC50 was under 1 µM.

Turning to `CCCCCCCc1ccc(Nc2nc(-c3ccc(Cl)cc3)cs2)cc1` [compound 567, 4-(4-chlorophenyl)-N-(4-heptylphenyl)thiazol-2-amine], the EC50 was under 1 µM. `CCCCCCCCN(C)c1ccc(Nc2nc(-c3ccc(F)cc3)cs2)cc1C(F)(F)F` [compound 568, 2-(trifluoromethyl)-N^4-(4-(4-fluorophenyl)thiazol-2-yl)-N^1-methyl-N^1-octylbenzene-1,4-diamine]: the EC50 is under 1 µM. As to `CCCCCCCCN(C)c1ccc(Nc2nc(-c3ccc(O)c(C(N)=O)c3)cs2)cc1C(F)(F)F` [compound 569, 5-(2-(4-(N-methyl-N-octylamino)-3-(trifluoromethyl)phenylamino)thiazol-4-yl)-2-hydroxybenzamide], the EC50 is under 1 µM.

For the compound `CCCCCCCCN(C)c1ccc(Nc2nc(-c3ccc(Cl)s3)cs2)cc1C(F)(F)F` [compound 570, N^4-(4-(5-chlorothiophen-2-yl)thiazol-2-yl)-2-(trifluoromethyl)-N^1-methyl-N^1-octylbenzene-1,4-diamine], the EC50 is under 1 µM.

For the origin of these results see patent publication US8088806B2 (Achillion Pharmaceuticals, Inc., priority 2005, dated 2012).
